The source of these data is patent US10562878B2, “Cycloalkylamines as monoamine reuptake inhibitors” (Sunovion Pharmaceuticals Inc., priority 2006, dated 2020).

Structures can show the parent of a compound that is named as a salt. Bounds are passed on as bounds.

The target in assay [1] is human dopamine transporter (Homo sapiens (Human), UniProt Q01959). As to the kind of experiment: Dopamine functional uptake assay, recombinant human transporter in CHO-K1 or HEK293 cells. In kind it is cell-based. To be noted: read-out: hDAT IC50.
For assay [2], the target named is human serotonin transporter (Homo sapiens (Human), UniProt P31645). As to the kind of experiment: Serotonin functional uptake assay, recombinant human transporter in HEK-293 cells. The assay is classed as cell-based. Conditions: Human serotonin transporter uptake; read-out: hSERT IC50.
Sequence of human serotonin transporter (P31645 whole entry): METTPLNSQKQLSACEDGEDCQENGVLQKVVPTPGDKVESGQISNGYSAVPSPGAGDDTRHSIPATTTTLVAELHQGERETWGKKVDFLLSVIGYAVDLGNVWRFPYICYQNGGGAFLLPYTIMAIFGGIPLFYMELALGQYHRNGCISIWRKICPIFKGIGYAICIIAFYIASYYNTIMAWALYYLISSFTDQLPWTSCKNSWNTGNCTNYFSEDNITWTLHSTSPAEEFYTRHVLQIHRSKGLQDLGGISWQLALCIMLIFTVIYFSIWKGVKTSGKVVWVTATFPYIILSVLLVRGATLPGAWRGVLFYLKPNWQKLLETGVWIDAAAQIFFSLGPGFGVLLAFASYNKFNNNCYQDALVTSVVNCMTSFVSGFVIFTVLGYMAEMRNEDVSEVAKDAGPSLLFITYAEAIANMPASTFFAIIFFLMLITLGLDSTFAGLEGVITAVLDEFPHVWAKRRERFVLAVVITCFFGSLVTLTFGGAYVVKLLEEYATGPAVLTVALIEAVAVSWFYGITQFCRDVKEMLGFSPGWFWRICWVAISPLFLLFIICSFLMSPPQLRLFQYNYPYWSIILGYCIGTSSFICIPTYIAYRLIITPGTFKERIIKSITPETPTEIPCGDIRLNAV

Sequence of human dopamine transporter (Q01959 whole entry): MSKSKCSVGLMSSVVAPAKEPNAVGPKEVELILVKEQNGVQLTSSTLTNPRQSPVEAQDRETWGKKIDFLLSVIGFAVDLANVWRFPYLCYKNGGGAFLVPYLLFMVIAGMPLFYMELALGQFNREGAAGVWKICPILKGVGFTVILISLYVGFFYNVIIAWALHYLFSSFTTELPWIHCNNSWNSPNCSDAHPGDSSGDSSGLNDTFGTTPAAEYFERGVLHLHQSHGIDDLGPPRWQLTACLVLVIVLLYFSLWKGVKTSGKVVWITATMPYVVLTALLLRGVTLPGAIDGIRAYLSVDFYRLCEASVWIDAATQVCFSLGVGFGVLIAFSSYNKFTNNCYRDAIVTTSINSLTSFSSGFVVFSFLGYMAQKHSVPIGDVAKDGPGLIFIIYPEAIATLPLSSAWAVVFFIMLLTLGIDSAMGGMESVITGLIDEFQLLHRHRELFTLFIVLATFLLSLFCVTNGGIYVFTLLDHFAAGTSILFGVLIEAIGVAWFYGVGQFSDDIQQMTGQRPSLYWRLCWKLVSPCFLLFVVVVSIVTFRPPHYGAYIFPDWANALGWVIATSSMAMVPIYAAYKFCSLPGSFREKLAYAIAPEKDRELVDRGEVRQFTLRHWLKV

Broadly, the IC50 is the midpoint of a concentration-inhibition curve. As to `CO[C@@H]1CCC[C@@](CN)(c2ccc(Cl)c(Cl)c2)C1` [Compound 192], the IC50 in assay [1] was 1.96 µM; in assay [2], greater than 10 µM.

For the compound `CNC[C@@]1(c2ccc(OC(F)(F)F)cc2)CCCC[C@H]1O` (single isomer, unassigned) [145 E2, cis-2-((Methylamino)methyl)-2-(4-(trifluoromethoxy)phenyl) cyclohexanol], the IC50 is 6.52 µM in assay [1] and 0.22 µM in assay [2].

On to `CN(C)C[C@]1(c2ccc(Cl)c(F)c2)CCCC[C@H]1O` (single isomer, unassigned) [158 E2, Trans-2-(4-chloro-3-fluorophenyl)-2-((dimethylamino)methyl)cyclohexanol], for which the IC50 in assay [1] is 5.02 µM; in assay [2], 2.99 µM.

As to `CNC(=O)[C@@]1(c2ccc3ccccc3c2)CCCC[C@H]1O` (relative stereo) [Compound 300, cis-2-hydroxy-N-methyl-1-(naphthalen-2-yl)cyclohexanecarboxamide], the values for the concentration for half-maximal inhibition (IC50) in assay [1] and in assay [2] were 1.73 µM and greater than 10 µM, respectively.

In the case of `CN(C)C[C@]1(c2ccc(Cl)cc2)CCCC[C@H]1O` (single isomer, unassigned) [154 E2, trans-2-(4-chlorophenyl)-2-((dimethylamino)methyl)cyclohexanol], the IC50 came out at 0.888 µM in assay [1] and 0.439 µM in assay [2].

`CN(C)C[C@@]1(c2ccc(C(F)(F)F)cc2)CCCC[C@H]1O` (single isomer, unassigned) [159 E1, cis-2-((dimethylamino)methyl)-2-(4-(trifluoromethyl)phenyl)cyclohexanol]: the IC50 came out at 3.8 µM in assay [1] and 1.26 µM in assay [2].

`COc1ccc([C@@]2(CN(C)C)CCCC[C@H]2O)cc1` (single isomer, unassigned) [156 E1, trans-2-((dimethylamino)methyl)-2-(4-methoxyphenyl)cyclohexanol]: the IC50 turned out to be 1.31 µM in assay [1] and 0.076 µM in assay [2].

With `CN(C)C[C@@]1(c2ccc(Cl)c(Cl)c2)CCCC[C@H]1O` (single isomer, unassigned) [152 E2, cis-2-(3,4-dichlorophenyl)-2-((dimethylamino)methyl)cyclohexanol], the IC50 in assay [1] amounted to […]; in assay [2], 0.077 µM.

On to `CNC[C@]1(c2cccc(Cl)c2)CCCC[C@H]1O` (single isomer, unassigned) [138 E2, trans-2-(3-chlorophenyl)-2-((methylamino)methyl)cyclohexanol], for which the IC50 in assay [1] turned out to be 2.54 µM; in assay [2], 7 µM.

As to `CN(C)C[C@@]1(c2ccc(Cl)c(F)c2)CCCC[C@H]1O` (single isomer, unassigned) [157 E2, Cis-2-(4-chloro-3-fluorophenyl)-2-((dimethylamino)methyl)cyclohexanol], the figures for the IC50 in assay [1] and in assay [2] were 0.849 µM and 0.29 µM, respectively.

As for `CCNC[C@@]1(c2ccc(Cl)c(Cl)c2)CCCC[C@H]1C` (racemic) [Compound 177, (±) cis-N-((1-(3,4-dichlorophenyl)-2-methylcyclohexyl)methyl)ethanamine], the IC50 came out at 0.322 µM in assay [1] and 3.22 µM in assay [2].

As for `CN(C)C[C@]1(c2ccc(Cl)cc2)CCCC[C@H]1O` (single isomer, unassigned) [154 E1, trans-2-(4-chlorophenyl)-2-((dimethylamino)methyl)cyclohexanol], the IC50 in assay [1] amounted to 0.795 µM; in assay [2], 2.17 µM.

Turning to `CN(C)C[C@@]1(c2ccc(Cl)c(F)c2)CCCC[C@H]1O` (single isomer, unassigned) [157 E1, Cis-2-(4-chloro-3-fluorophenyl)-2-((dimethylamino)methyl)cyclohexanol], the IC50 was 0.575 µM in assay [1] and 1.3 µM in assay [2].

As for `CN(C)C[C@]1(c2ccc(C(F)(F)F)cc2)CCCC[C@H]1O` (single isomer, unassigned) [160 E1, trans-2-((dimethylamino)methyl)-2-(4-(trifluoromethyl)phenyl)cyclohexanol], the values for the IC50 in assay [1] and in assay [2] were 9.72 µM and 7.19 µM, respectively.

Take `CNC[C@]1(c2ccc(OC)cc2)CCCC[C@H]1O` (single isomer, unassigned) [140 E1, (±) trans-2-(4-Methoxyphenyl)-2-((methylamino)methyl)cyclohexanol]: the values for the IC50 in assay [1] and in assay [2] were 8.82 µM and 2.69 µM, respectively.

As for `CN(C)C[C@]1(c2ccc(C(F)(F)F)cc2)CCCC[C@H]1O` (single isomer, unassigned) [160 E2, trans-2-((dimethylamino)methyl)-2-(4-(trifluoromethyl)phenyl)cyclohexanol], the IC50 in assay [1] was greater than 10 µM; in assay [2] it was 5.09 µM.

With `C[C@@H]1CCCC[C@@]1(CN)c1ccc(Cl)c(Cl)c1` (racemic) [Compound 174, (±)-cis-(1-(3,4-dichlorophenyl)-2-methylcyclohexyl)methanamine hydrochloride], the IC50 is 2.78 µM in assay [1] and 0.246 µM in assay [2].

Turning to `C[C@@H]1CCCC[C@@]1(CN(C)C)c1ccc(Cl)c(Cl)c1` (racemic) [Compound 175, (±) cis-1-(1-(3,4-dichlorophenyl)-2-methylcyclohexyl)-N,N-dimethylmethanamine hydrochloride], the IC50 in assay [1] stood at 0.125 µM; in assay [2] it was 0.055 µM.

Regarding `CN(C)C[C@]1(c2ccc(Cl)c(F)c2)CCCC[C@H]1O` (single isomer, unassigned) [158 E1, Trans-2-(4-chloro-3-fluorophenyl)-2-((dimethylamino)methyl)cyclohexanol], the IC50 in assay [1] stood at 0.945 µM; in assay [2], 8.44 µM.

Take `CNC[C@@]1(c2ccc(Cl)c(Cl)c2)CCCC[C@H]1C` (racemic) [Compound 176, (±) cis-1-(1-(3,4-dichlorophenyl)-2-methylcyclohexyl)-N-methylmethanamine]: the IC50 in assay [1] worked out at 0.775 µM; in assay [2], 0.533 µM.

Take `COc1ccc([C@@]2(CN(C)C)CCCC[C@H]2O)cc1` (single isomer, unassigned) [156 E2, trans-2-((dimethylamino)methyl)-2-(4-methoxyphenyl)cyclohexanol]: the values for the IC50 in assay [1] and in assay [2] were 4 µM and 0.653 µM, respectively.

In the case of `CN(C)C[C@@]1(c2ccc(Cl)c(Cl)c2)CCCC[C@H]1O` (single isomer, unassigned) [152 E1, cis-2-(3,4-dichlorophenyl)-2-((dimethylamino)methyl)cyclohexanol], the IC50 turned out to be […] in assay [1] and 0.405 µM in assay [2].
